Laboratory results as given in patent publication US20090181888A1, “Skin Repair Accelerating Therapeutic Agent Containing Ghrelin and Derivatives Thereof or Substance Acting On GHS-R1a as Active Ingredient” (priority 2005, published 2009).
Square brackets hold non-standard residues; d marks the D form. Ends that are not written are not given here. * marks the point of attachment. Octanoyl = CCCCCCCC(=O)*

Experiments:
Format in all cases: cell-based, Wistar rat
[1] = system: fetal skin cell having GHS-R1a; assay: Intracellular calcium-increasing activity in cultured fetal skin cell (Fura-2 calcium imaging); conditions: single skin cell of rat fetus
Experimental: A Wistar rat on the 17th day of pregnancy underwent laparotomy under anesthesia for fetus extraction. A small piece of skin was collected from the fetus, treated with collagenase in cold Hank's solution, digested with papain, and mechanically separated by pipetting. This gave a dispersion liquid of the fetal skin cells. A single cell was obtained from the dispersion liquid, ghrelin was added thereto, and calcium imaging was performed. For the calcium imaging, a calcium imaging device (IMACS, Hamamatsu Photonics) was used. That is, the ratio of the emission at a wavelength of 510 nm was measured when excitation was performed by 340 nm/380 nm light. Fura-2 was used as a calcium imaging agent. Ghrelin derived from a rat (SEQ ID NO: 3) was used (the same in the following Examples).
In FIG. 2, I, II and III are the points at which a photograph was taken, but the photographs are omitted from the present description. […] Ghrelin and desacylghrelin were added to different cells, respectively.

[2] = system: cultured fetal skin cell; assay: [3H]-thymidine uptake acceleration in cultured fetal skin cell; conditions: ghrelin 0.5, 5 and 50 pmol/mL (nM); incubated 24 or 48 hours; versus control without ghrelin; FIG. 3
Experimental: The skin cells of a rat fetus were collected from a Wistar rat on the 17th day of pregnancy, and a dispersion liquid thereof was obtained in the same manner as in Example 2. The dispersed cells were suspended in a MCDB153HAA medium (F-Peptide Co., Ltd., Yamagata, Japan) containing 2% fetal bovine serum, penicillin (100 U/mL), streptomycin (100 μg/mL) and epidermal growth factor EGF (5 ng/mL), and sowed on a polyethyleneimine coated 48-hole multi-well plate in an amount of 5×10^5 cells/well. Ghrelin ([…] (nM))) and [^3H]-thymidine (2 μCi/mL) were added thereto, which was then incubated for 24 hours or 48 hours. A culture solution without containing ghrelin was prepared as a control. After the incubation was over, the cells were collected and radioactivity was measured.
The results are shown in FIG. 3 (black triangle: 50 pmol/mL, black square: 5 pmol/mL, black circle: 0.5 pmol/mL, white circle: control).

[3] = system: cultured fetal skin cell; assay: Cell proliferation acceleration (BrdU uptake, Proliferation ELISA) in cultured fetal skin cell; conditions: ghrelin 0.05 to 500 pmol/mL (nM) or GHRP6 0.05 to 50 pmol/mL (nM); 24 hours; versus control medium; FIG. 4
Experimental: The fetal skin cells were collected from a Wistar rat on the 17th day of pregnancy, and a dispersion liquid thereof was obtained in the same manner as in Example 2. The dispersed cells with ghrelin (0.05 to 500 pmol/mL (nM)) or GHRP6 (0.05 to 50 pmol/mL (nM)) were suspended in a MCDB153HAA medium (F-Peptide Co., Ltd., Yamagata, Japan) containing 2% fetal bovine serum, penicillin (100 U/mL), streptomycin (100 μg/mL) and epidermal growth factor EGF (5 ng/mL), and sowed on a polyethyleneimine coated 96-hole multi-well plate in an amount of 3×10^4 cells/well. A medium without containing ghrelin or GHRP6 was used as a control. 5-bromo-2′-deoxyuridine (BrdU) (10 μM) was added thereto, which was then incubated for 24 hours. After the culture was over, uptake quantity of BrdU into the fetal skin cell was measured using Proliferation ELISA Kit (Roche Diagnostic GmbH. Manheim, Germany) to consider the skin cell growth activity.

| Substance | calcium response of a single fetal skin cell (FIG. 2 curve) ([1]; dotted-line curve of FIG. 2, concentration not given) | uptake of [3H]-thymidine into the cell [2] | intracellular calcium in a single fetal skin cell ([1]; ghrelin 1×10^−6 M, day 17 of pregnancy, Fura-2, 340 nm/380 nm ratio, FIG. 2) | uptake of BrdU into the fetal skin cell [3] |
| --- | --- | --- | --- | --- |
| desacylghrelin [reference compound] | responded |  |  |  |
| GSS (n-octanoyl) FLSPEHQKAQQRKESKKPPAKLQPR (GSS(Octanoyl)FLSPEHQKAQQRKESKKPPAKLQPR; listed as Rattus norvegicus) [ghrelin, 28-residue peptide, serine 3 acylated with n-octanoyl, endogenous GHS-R1a ligand] |  | increased | increase of calcium was observed | significantly increased |
| H[dW]AW[dF]K-NH2 [GHRP6, reference compound] |  |  |  | significantly increased |
